Measurements published in US10538490B2, “Benzylaminopyridylcyclopropanecarboxylic acids, pharmaceutical compositions and uses thereof” (Boehringer Ingelheim International GmbH, priority 2016, dated 2020).

Biological target: human GPR40 receptor (Homo sapiens, UniProt O14842)
Test: IP1 accumulation measurements using the IPOne assay system
Format: cell-based
Conditions: 1321N1 cells stably expressing human GPR40 receptor, stimulation 1 h at 37° C.
Method: IP1 accumulation measurements using the IPOne assay system—1321N1 cells stably expressing human GPR40 receptor (Euroscreen, Belgium) are seeded 24 h before the assay in white 384-well plates in culture medium containing 10% FCS, 1% Na-Pyruvate and 400 μg/mL G418. IPi is assayed according to the manufacturer's description (Cisbio Bioassays, France). In brief, the assay is started by substitution of the culture medium by stimulation buffer (Hepes 10 mM, CaCl2 1 mM, MgCl2 0.5 mM, KCl 4.2 mM, NaCl 146 mM, glucose 5.5 mM and LiCl 50 mM, pH 7.4). Cells are stimulated for 1 h at 37° C., 5% CO2 by addition of the compounds that are diluted in stimulation buffer containing LiCl. Assays are stopped by adding HTRF-conjugates (IP1-d2 and Anti-IP1 cryptate Tb) and lysis buffer, provided by the manufacturer. After an incubation time of 1 h at room temperature plates are measured using an EnVision™, Perkin Elmer. The obtained fluorescence ratios at 665/615 […] are then used to calculate the pEC50 values using Assay Explorer 3.3 Software (Accelrys, Inc.) by interpolation using an IP1 reference curve and subsequent sigmoidal curve fitting allowing for a variable hill slope.

human GPR40 receptor, sequence (O14842 whole entry): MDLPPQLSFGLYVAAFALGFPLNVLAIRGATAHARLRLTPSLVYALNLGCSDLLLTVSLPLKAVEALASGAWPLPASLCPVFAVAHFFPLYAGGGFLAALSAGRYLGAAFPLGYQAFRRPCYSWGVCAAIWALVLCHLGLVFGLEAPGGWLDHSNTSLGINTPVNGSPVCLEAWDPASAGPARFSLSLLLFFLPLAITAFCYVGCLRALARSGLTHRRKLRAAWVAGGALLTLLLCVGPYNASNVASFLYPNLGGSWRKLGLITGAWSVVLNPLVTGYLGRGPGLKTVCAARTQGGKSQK

Compound | EC50
Cc1cc(OCC2CCOC2)cc(C)c1-c1ccc(F)c(CNc2ccc([C@H]3C[C@@H]3C(=O)O)cn2)c1 (stereo partly drawn) [Example 36] | 85 nM
Cc1cc(OCC2(C)COC2)cc(C)c1-c1ccc(F)c(CNc2ccc([C@H]3C[C@@H]3C(=O)O)cn2)c1 [Example 45] | 147 nM
Cc1cc(OCC(C)(C)C#N)cc(C)c1-c1ccc(F)c(CNc2ccc([C@H]3C[C@@H]3C(=O)O)cn2)c1 [Example 46] | 96 nM
Cc1cc(OCc2ccccc2)cc(C)c1-c1ccc(F)c(CNc2ccc([C@H]3C[C@@H]3C(=O)O)cn2)c1 [Example 47] | 107 nM
COc1cc(OC)c(F)c(-c2ccc(F)c(CNc3ccc([C@H]4C[C@@H]4C(=O)O)cn3)c2)c1F [Example 52] | 1340 nM
CC(C)c1ccccc1-c1ccc(F)c(CNc2ccc([C@H]3C[C@@H]3C(=O)O)cn2)c1 [Example 54] | 317 nM
Cc1cc(OCC2(O)CCS(=O)(=O)CC2)cc(C)c1-c1ccc(F)c(CNc2ccc([C@H]3C[C@@H]3C(=O)O)cn2)c1 [Example 57] | 422 nM
CNC(=O)c1cc(C)c(-c2ccc(F)c(CNc3ccc([C@H]4C[C@@H]4C(=O)O)cn3)c2)c(C)c1 [Example 59] | 375 nM
Cc1cc(C(=O)N(C)C)cc(C)c1-c1ccc(F)c(CNc2ccc([C@H]3C[C@@H]3C(=O)O)cn2)c1 [Example 60] | 550 nM
COc1cc(F)c(-c2cc(CNc3ccc([C@H]4C[C@@H]4C(=O)O)cn3)c(F)cc2F)c(F)c1 [Example 62] | 668 nM
O=C(O)[C@H]1C[C@@H]1c1ccc(NCc2cc(-c3c(F)cccc3F)c(F)cc2F)nc1 [Example 63] | 931 nM
COc1c(F)c(F)c(-c2cc(CNc3ccc([C@H]4C[C@@H]4C(=O)O)cn3)c(F)cc2F)c(F)c1F [Example 64] | 123 nM
N#Cc1cccc(C#N)c1-c1cc(CNc2ccc([C@H]3C[C@@H]3C(=O)O)cn2)c(F)cc1F [Example 65] | > 10000 nM
Cc1cc(C(=O)O)cc(C)c1-c1cc(CNc2ccc([C@H]3C[C@@H]3C(=O)O)cn2)c(F)cc1F [Example 69] | 5960 nM
Nc1cc(F)c(-c2cc(CNc3ccc([C@H]4C[C@@H]4C(=O)O)cn3)c(F)cc2F)c(F)c1 [Example 70] | 3630 nM
O=C(O)[C@H]1C[C@@H]1c1ccc(NCc2cc(-c3c(F)cc(OC4CC4)cc3F)c(F)cc2F)nc1 [Example 71] | 140 nM
COc1cc(OC)c(-c2cc(CNc3ccc([C@H]4C[C@@H]4C(=O)O)cn3)c(F)cc2F)c(OC)c1 [Example 72] | 838 nM
O=C(O)[C@H]1C[C@@H]1c1ccc(NCc2cc(-c3c(Cl)cccc3Cl)c(F)cc2F)nc1 [Example 73] | 40 nM
N#CC1(c2ccccc2-c2cc(CNc3ccc([C@H]4C[C@@H]4C(=O)O)cn3)c(F)cc2F)CC1 [Example 74] | 1340 nM
Cc1cc(C(N)=O)cc(C)c1-c1cc(CNc2ccc([C@H]3C[C@@H]3C(=O)O)cn2)c(F)cc1F [Example 76] | 340 nM
O=C(O)[C@H]1C[C@@H]1c1ccc(NCc2cc(-c3c(F)cc(F)cc3F)c(F)cc2F)nc1 [Example 81] | 491 nM
Cc1cc(CO)cc(C)c1-c1cc(CNc2ccc([C@H]3C[C@@H]3C(=O)O)cn2)c(F)cc1F [Example 82] | 236 nM
Cc1cc(OCC(C)(C)O)cc(C)c1-c1cc(CNc2ccc([C@H]3C[C@@H]3C(=O)O)cn2)c(F)cc1F [Example 83] | 104 nM
Cc1cc(OCC2(C)COC2)cc(C)c1-c1cc(CNc2ccc([C@H]3C[C@@H]3C(=O)O)cn2)c(F)cc1F [Example 87] | 89 nM
COc1cc(OC)c(F)c(-c2cc(CNc3ccc([C@H]4C[C@@H]4C(=O)O)cn3)c(F)cc2F)c1F [Example 94] | 1320 nM
CC(C)c1ccccc1-c1cc(CNc2ccc([C@H]3C[C@@H]3C(=O)O)cn2)c(F)cc1F [Example 96] | 114 nM
Cc1cc(OCC2(O)CCSCC2)cc(C)c1-c1cc(CNc2ccc([C@H]3C[C@@H]3C(=O)O)cn2)c(F)cc1F [Example 98] | 102 nM
Cc1cc(OCC2(O)CCS(=O)(=O)CC2)cc(C)c1-c1cc(CNc2ccc([C@H]3C[C@@H]3C(=O)O)cn2)c(F)cc1F [Example 100] | 101 nM
CNC(=O)c1cc(C)c(-c2cc(CNc3ccc([C@H]4C[C@@H]4C(=O)O)cn3)c(F)cc2F)c(C)c1 [Example 102] | 420 nM
Cc1cc(C(=O)N(C)C)cc(C)c1-c1cc(CNc2ccc([C@H]3C[C@@H]3C(=O)O)cn2)c(F)cc1F [Example 103] | 462 nM

Continued by falling EC50, values first:

EC50 | Compound
81 nM | Cc1cc(OCC(C)(C)C#N)cc(C)c1-c1cc(CNc2ccc([C@H]3C[C@@H]3C(=O)O)cn2)c(F)cc1F [Example 88]
72 nM | Cc1cc(-c2ccn(C)c(=O)n2)cc(C)c1-c1ccc(F)c(CNc2ccc([C@H]3C[C@@H]3C(=O)O)cn2)c1 [Example 49]
65 nM | Cc1cc(OCc2ccccc2)cc(C)c1-c1cc(CNc2ccc([C@H]3C[C@@H]3C(=O)O)cn2)c(F)cc1F [Example 89]
57 nM | Cc1cc(OC2CCOCC2)cc(C)c1-c1cc(CNc2ccc([C@H]3C[C@@H]3C(=O)O)cn2)c(F)cc1F [Example 84]
50 nM | COc1cc(OC)c(Cl)c(-c2cc(CNc3ccc([C@H]4C[C@@H]4C(=O)O)cn3)c(F)cc2F)c1Cl [Example 75]
48 nM | O=C(O)[C@H]1C[C@@H]1c1ccc(NCc2cc(-c3ccccc3C(F)(F)F)c(F)cc2F)nc1 [Example 66]
43 nM | Cc1cc(OCC2CCOCC2)cc(C)c1-c1ccc(F)c(CNc2ccc([C@H]3C[C@@H]3C(=O)O)cn2)c1 [Example 58]
43 nM | Cc1cc(-c2ccn(C)c(=O)n2)cc(C)c1-c1cc(CNc2ccc([C@H]3C[C@@H]3C(=O)O)cn2)c(F)cc1F [Example 91]
42 nM | Cc1cc(O[C@H]2CCOC2)cc(C)c1-c1cc(CNc2ccc([C@H]3C[C@@H]3C(=O)O)cn2)c(F)cc1F [Example 79]
39 nM | Cc1cc(OCC2CCOCC2)cc(C)c1-c1cc(CNc2ccc([C@H]3C[C@@H]3C(=O)O)cn2)c(F)cc1F [Example 101]
32 nM | Cc1cc(-c2ccn(C)c(=O)c2)cc(C)c1-c1ccc(F)c(CNc2ccc([C@H]3C[C@@H]3C(=O)O)cn2)c1 [Example 44]
29 nM | Cc1cc(-c2ccn(C)c(=O)c2)cc(C)c1-c1cc(CNc2ccc([C@H]3C[C@@H]3C(=O)O)cn2)c(F)cc1F [Example 86]
25 nM | Cc1cc(-c2ccnn2C)cc(C)c1-c1ccc(F)c(CNc2ccc([C@H]3C[C@@H]3C(=O)O)cn2)c1 [Example 50]
25 nM | Cc1cc(-c2cc(=O)n(C)cn2)cc(C)c1-c1cc(CNc2ccc([C@H]3C[C@@H]3C(=O)O)cn2)c(F)cc1F [Example 85]
5 nM | Cc1cc(OCC2CCOC2)cc(C)c1-c1cc(CNc2ccc([C@H]3C[C@@H]3C(=O)O)cn2)c(F)cc1F (stereo partly drawn) [Example 78]
